Test results reported in US10544113B2 (priority 2016, dated 2020).
Like-named read-outs stand apart in the source and are kept apart here.

Molecular target: mu-opioid receptor (MOR) (Homo sapiens (Human), UniProt P35372)
Assay: cell-based
Settings: combined with a MOR antagonist; for AUC: AUC of [Ca2+]i fluorescence
Experimental: In an exemplary in vitro screening method for identifying antagonist-to-agonist allosteric modifiers of a MOR, cells that express a MOR are treated with a test compound and a MOR antagonist in a cellular calcium fluorescent assay and fluorescence intensity is then measured to determine whether the MOR is activated. A test compound is identified as an antagonist-to-agonist allosteric modifier of the MOR if the MOR is activated.
EC50 herein refers to the concentration of a compound that induces a response halfway between the baseline and the maximum after a specified exposure time. AUC refers to the area under the response curve, an indication of the compound's capability of activating a MOR when combined with a MOR antagonist.
Human embryonic kidney 293 (HEK-293) cells constitutively expressing MOR (HEK-MOR) and DOR (HEK-DOR) (kindly provided by Dr. Ping-Yee Law, University of Minnesota, USA) were cultured in high-glucose Dulbecco's modified Eagle's medium (DMEM, GIBCO) supplemented with 400 μg/mL G418 (Sigma), 2 mM L-glutamine and P/S/F (100 units/mL penicillin, 100 μg/mL streptomycin, 10% fetal bovine serum). Chinese hamster ovary (CHO)-K1 cells, stably expressing hMOR and Gα15 (CHO-K1/MOR/Gα15), were cultured in F12 medium (GIBCO) supplemented with 10 μg/mL Hygromycin B (Invivogen), 20 μg/mL Zeocin (Invivogen) P/S/F (100 units/mL penicillin, 100 μg/mL streptomycin, 10% fetal bovine serum). The cultures were incubated at 37° C. in a humidified 5% CO2 incubator.
One day before the assay, CORNING® black with clear flat bottom 96-well assay plates were coated with a 0.1 mg/mL Poly-L-Lysine solution. CHO-K1/MOR/Gα15 cells were suspended in the F12 medium and plated at a density of ˜8×10^4 cells/well in 200 μL medium. Cells were incubated in a humidified atmosphere of 10% CO2 at 37° C. overnight so as to reach an 80-90% confluent cell monolayer before assay. At the day of assay, 150 μL medium/well was removed from plate. To each well, 50 μL FLIPR® calcium assay reagent dissolved in 1× assay buffer (HBSS: KCl 5 mM, KH2PO4 0.3 mM, NaCl 138 mM, NaHCO3 4 mM, Na2HPO4 0.3 mM, d-glucose 5.6 mM, with additional 20 mM HEPES and 13 mM CaCl2, pH 7.4), with 2.5 mM probenecid was added and the plate was incubated at 37° C. for 1 h. Compounds and other reagents were dissolved in the assay buffer. Using a FlexStationIII (Molecular Devices Corp.), the [Ca^2+]i fluorescence increases after robotic injections of compounds or other reagents were monitored every 1.52 s interval with excitation wavelength at 485 nm and with emission wavelength at 525 nm. The [Ca^2+]i fluorescence was measured up to 90 s after agonist injection.
A CHO-K1 cell line, expressing a MOR and Gα15 (GenScript), was used to set up a sensitive high-throughput screen (HTS) system. In a FLIPR® calcium assay using CHO-K1/MOR/Gα15 cells, activation of MOR elicits an intracellular calcium release leading to an increase in the relative fluorescence units (FRU). […] The HTS was performed in the absence or presence of an opioid antagonist, naloxone (25 nM), to identify antagonist to agonist allosteric modifiers (AAM).
A CHO-K1 cell line, expressing a MOR and Gα15 (GenScript), was used to set up a sensitive assay system for detecting μ-opioid receptor activation. […] The assay was performed in the presence of an opioid antagonist, i.e., naloxone (25 nM), naltrexone (20 nM), samidorphan (10 nM), naloxonazine dihydrochloride (20 nM), β-funaltrexamine hydrochloride (20 nM), cyprodime hydrochloride (500 nM), or nalmefene (20 nM), in combination with compound 58, an antagonist to agonist allosteric modifier (AAM), to identify activation of the μ-opioid receptor.

Chain of mu-opioid receptor (MOR) (P35372 whole entry): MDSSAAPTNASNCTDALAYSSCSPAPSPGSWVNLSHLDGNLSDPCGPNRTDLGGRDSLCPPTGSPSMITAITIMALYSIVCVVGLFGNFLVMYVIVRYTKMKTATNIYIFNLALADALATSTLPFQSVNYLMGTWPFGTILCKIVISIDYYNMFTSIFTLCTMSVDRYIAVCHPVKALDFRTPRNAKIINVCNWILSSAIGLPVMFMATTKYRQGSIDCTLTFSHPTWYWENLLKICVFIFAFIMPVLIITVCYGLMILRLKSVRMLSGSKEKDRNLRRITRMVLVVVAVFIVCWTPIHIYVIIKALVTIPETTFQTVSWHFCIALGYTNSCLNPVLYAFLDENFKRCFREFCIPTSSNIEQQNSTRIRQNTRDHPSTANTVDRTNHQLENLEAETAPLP

Row | Compound | EC50 (EC50, CHO-K1/MOR/Gα15 cells) | FLIPR Ca^2+ AUC | EC50 (read-out: FLIPR Ca^2+ EC50) | AUC (CHO-K1/MOR/Gα15 cells) | EC50 (CHO-K1/MOR/Gα15 cells, read-out: EC50)
1 | Cc1cc(CC(=O)O)ccc1N1C(=O)CSC1c1ccc(F)cc1 (centres unmarked) [Example 101] | < 10 µM | – | – | – | –
2 | Cc1cccnc1N1C(=O)CSC1c1ccc(F)cc1 (centres unmarked) [Example 629, 2-(4-Fluorophenyl)-3-(3-methylpyridin-2-yl)-1,3-thiazolidin-4-one] | – | 4804 | 10 µM | – | –
3 | Cc1cc(C(=O)OCc2cccnc2)ccc1N1C(=O)CSC1c1ccc(F)cc1 (centres unmarked) [Example 261] | < 10 µM | 11434 | 2.9 µM | more than 5000 | –
4 | 4-[2-(4-Fluorophenyl)-4-oxo-1,3-thiazolidin-3-yl]-N-methoxy-3-methylbenzamide [Example 154] | – | 15447 | 3.7 µM | more than 5000 | < 10 µM
5 | COc1cc(F)c(F)cc1N1C(=O)CSC1c1ccc(F)cc1 (centres unmarked) [Example 10, 3-(4,5-Difluoro-2-methoxyphenyl)-2-(4-fluorophenyl)thiazolidin-4-one] | < 10 µM | 6152 | 2 µM | – | –
6 | COc1cc(C(=O)O)ccc1N1C(=O)CSC1c1ccc(F)cc1 (centres unmarked) [Example 12, 4-[2-(4-Fluoro-phenyl)-4-oxo-thiazolidin-3-yl]-3-methoxy-benzoic acid] | – | 12252 | 10.6 µM | – | –
7 | Cc1cc(C(=O)NC2CCCCC2)ccc1N1C(=O)CSC1c1ccc(F)cc1 (centres unmarked) [Example 339] | – | 7164 | 10 µM | – | –
8 | O=C(O)c1ccc(N2C(=O)CSC2c2ccc(F)cc2)c(Cl)c1 (centres unmarked) [Example 44] | < 10 µM | – | – | – | –
9 | Cc1cc(N(C)C)ccc1N1C(=O)CSC1c1ccc(F)cc1 (centres unmarked) [Example 53] | – | 6407 | 0.5 µM | – | –
10 | CCONC(=O)c1ccc(N2C(=O)CSC2c2ccc(F)cc2)c(C)c1 (centres unmarked) [Example 588, N-Ethoxy-4-[2-(4-fluorophenyl)-4-oxo-1,3-thiazolidin-3-yl]-3-methylbenzamide] | < 10 µM | 9986 | 9.27 µM | more than 5000 | –
11 | Cc1cc(C(=O)OC2CCN(C)C2)ccc1N1C(=O)CSC1c1ccc(F)cc1 (centres unmarked) [Example 300] | – | 12918 | 1.6 µM | – | –
12 | CCN(CC)CCNC(=O)c1ccc(N2C(=O)CSC2c2ccc(F)cc2)c(C)c1 (centres unmarked) [Example 341] | – | 9983 | 3.3 µM | – | –
13 | CCN(CC)CCOC(=O)c1ccc(N2C(=O)CSC2c2ccc(F)cc2)c(C)c1 (centres unmarked) [Example 292] | – | 10056 | 3.1 µM | – | –
14 | Cc1cc(C(=O)NS(=O)(=O)N(C)C)ccc1N1C(=O)CSC1c1ccc(F)cc1 (centres unmarked) [Example 174] | – | 12074 | 3.8 µM | – | –
15 | Cc1cc(C(=O)O)ccc1N1C(=O)CSC1c1ccc(F)c(F)c1 (centres unmarked) [Example 62] | < 10 µM | 21586 | 1.6 µM | more than 5000 | –
16 | Cc1c(F)cccc1N1C(=O)CSC1c1ccc(F)cc1 (centres unmarked) [Example 109] | – | 9614 | 2.6 µM | – | –
17 | Cc1cc(C(=O)NCc2ccccc2)ccc1N1C(=O)CSC1c1ccc(F)cc1 (centres unmarked) [Example 374] | – | 6726 | 5.1 µM | more than 5000 | –
18 | Cc1cc(C(=O)NCCc2cccc(Cl)c2)ccc1N1C(=O)CSC1c1ccc(F)cc1 (centres unmarked) [Example 386] | – | 5727 | 4.2 µM | – | –
19 | Cc1c(N2C(=O)CSC2c2cccc(F)c2)c(=O)n(-c2ccccc2)n1C (centres unmarked) [Example 404] | – | 7127 | 21.8 µM | more than 5000 | –

Row | Compound | EC50 (EC50, CHO-K1/MOR/Gα15 cells) | FLIPR Ca^2+ AUC | EC50 (read-out: FLIPR Ca^2+ EC50) | AUC (CHO-K1/MOR/Gα15 cells) | EC50 (CHO-K1/MOR/Gα15 cells, read-out: EC50)
20 | CC(=O)OCCOC(=O)c1ccc(N2C(=O)CSC2c2ccc(F)cc2)c(C)c1 (centres unmarked) [Example 272] | < 10 µM | – | – | – | –
21 | CCOC(=O)N1CCC(NC(=O)c2ccc(N3C(=O)CSC3c3ccc(F)cc3)c(C)c2)CC1 (centres unmarked) [Example 350] | – | 12979 | 4.4 µM | – | –
22 | COCCS(=O)(=O)NC(=O)c1ccc(N2C(=O)CSC2c2ccc(F)cc2)c(C)c1 (centres unmarked) [Example 593, 4-[2-(4-Fluorophenyl)-4-oxo-1,3-thiazolidin-3-yl]-N-[(2-methoxyethyl)sulfonyl]-3-methylbenzamide] | < 10 µM | 11543 | 2.21 µM | more than 5000 | –
23 | Cc1cc(C(=O)NS(=O)(=O)c2c(C)noc2C)ccc1N1C(=O)CSC1c1ccc(F)cc1 (centres unmarked) [Example 213] | < 10 µM | 9005 | 0.9 µM | more than 5000 | –
24 | Cc1cc(C(=O)OC2CCN(C)CC2)ccc1N1C(=O)CSC1c1ccc(F)cc1 (centres unmarked) [Example 301] | – | 9593 | 0.9 µM | – | –
25 | Cc1cc(C(=O)N2CCCC(O)C2)ccc1N1C(=O)CSC1c1ccc(F)cc1 (centres unmarked) [Example 353] | – | 11991 | 7.3 µM | – | –
26 | Cc1cc(C(=O)OCCC#N)ccc1N1C(=O)CSC1c1ccc(F)cc1 (centres unmarked) [Example 269] | – | 14183 | 12.3 µM | – | –
27 | [2H]c1c([2H])c(C2SCC(=O)N2c2ccc(C(=O)O)cc2C)c([2H])c([2H])c1F (centres unmarked) [Example 579, 4-{2-[4-Fluoro-2,3,5,6-d4-phenyl]-4-oxo-1,3-thiazolidin-3-yl}-3-methylbenzoic acid] | – | 14761 | 1.93 µM | – | –
28 | Cc1cc(C(=O)NCc2ccc(F)c(F)c2)ccc1N1C(=O)CSC1c1ccc(F)cc1 (centres unmarked) [Example 378] | < 10 µM | 15891 | 6.3 µM | – | –
29 | Cc1cc(C(=O)OCC(F)(F)F)ccc1N1C(=O)CSC1c1ccc(F)cc1 (centres unmarked) [Example 286] | < 10 µM | 13001 | 9.2 µM | more than 5000 | –
30 | CCc1ccc(C2SCC(=O)N2c2cc(F)ccc2C)cc1 (centres unmarked) [Example 117] | – | 7880 | 13.5 µM | more than 5000 | –
31 | Cc1ccc(C(F)(F)F)cc1N1C(=O)CSC1c1ccc(F)cc1 (centres unmarked) [Example 92] | < 10 µM | – | – | – | –
32 | COCCN(C)C(=O)c1ccc(N2C(=O)CSC2c2ccc(F)cc2)c(C)c1 (centres unmarked) [Example 356] | – | 9505 | 11.8 µM | – | –
33 | COCCOCCOC(=O)c1ccc(S(=O)(=O)NC(=O)c2ccc(N3C(=O)CSC3c3ccc(F)cc3)c(C)c2)cc1 (centres unmarked) [Example 591, 2-(2-Methoxyethoxy)ethyl 4-({4-[2-(4-fluorophenyl)-4-oxo-1,3-thiazolidin-3-yl]-3-methylbenzoyl}sulfamoyl)benzoate] | – | 13033 | 10.3 µM | more than 5000 | –
34 | Cc1cc(C)c(S(=O)(=O)NC(=O)c2ccc(N3C(=O)CSC3c3ccc(F)cc3)c(C)c2)c(C)c1 (centres unmarked) [Example 192] | < 10 µM | 11866 | 1.4 µM | more than 5000 | –
35 | Cc1cc(C(N)=O)ccc1N1C(=O)CSC1c1ccc(F)cc1 (centres unmarked) [Example 329] | < 10 µM | 13749 | 1.7 µM | more than 5000 | –
36 | COC[C@@H]1CCCN1C(=O)c1ccc(N2C(=O)CSC2c2ccc(F)cc2)c(C)c1 (some centres unmarked) [Example 355] | – | 12691 | 10 µM | – | –
37 | Cc1cc(C(=O)N(C)C)ccc1N1C(=O)CSC1c1ccc(F)cc1 (centres unmarked) [Example 332] | < 10 µM | – | – | – | –
38 | COc1cc(C)c(N2C(=O)CSC2c2ccc(F)cc2)cc1OC (centres unmarked) [Example 52] | – | 7780 | 3.6 µM | – | –
